According to patent US20250237649A1 (priority 2021, published 2025):
Where two headings read alike, the source gives them in different places. Residues, ends and D or L forms follow the SMILES beside them. *: point of attachment. Dabcyl = CN(C)c1ccc(N=Nc2ccc(C(=O)*)cc2)cc1; EDANS = O=S(=O)(O)c1cccc2c(NCCN*)cccc12; pNA = O=[N+]([O-])c1ccc(N*)cc1; Cbz = O=C(OCc1ccccc1)*

Key:
Hip1 [1] = biological target: T1, Hip1 (Mycobacterium tuberculosis, UniProt P9WHR3); assay: Inhibition of Hip1 (Ki determination); type: biochemical
T1 sequence (P9WHR3 31-520): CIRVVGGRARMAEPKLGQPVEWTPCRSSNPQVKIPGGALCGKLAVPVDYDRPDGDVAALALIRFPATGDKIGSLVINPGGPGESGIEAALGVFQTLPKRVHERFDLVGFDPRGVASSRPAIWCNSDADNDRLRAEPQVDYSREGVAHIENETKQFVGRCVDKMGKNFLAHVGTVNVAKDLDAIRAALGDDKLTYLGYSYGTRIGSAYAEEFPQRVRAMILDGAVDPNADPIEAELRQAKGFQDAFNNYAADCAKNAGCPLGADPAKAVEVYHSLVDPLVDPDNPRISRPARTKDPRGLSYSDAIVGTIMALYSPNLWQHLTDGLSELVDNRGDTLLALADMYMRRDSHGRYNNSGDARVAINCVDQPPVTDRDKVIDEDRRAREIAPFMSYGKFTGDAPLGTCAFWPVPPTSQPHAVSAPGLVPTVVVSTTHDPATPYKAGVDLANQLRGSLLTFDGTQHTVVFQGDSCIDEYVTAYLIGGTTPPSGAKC

Hip1 [2] = biological target: T1, Hip1; assay: Km determination of Hip1 substrates (Michaelis-Menten); type: biochemical
[3] = read-out: Km (fluorescent substrate)

SMILES	Km (Hip1 [2]; [3]) [µM]	other results
COC(=O)C(=O)[C@H](C[C@@H]1CCNC1=O)NC(=O)[C@H](CCCCN)NC(=O)[C@H](Cc1ccccc1)NC(=O)OCc1ccccc1 [Inhibitor Compound 2, Cbz-Phe-Lys-Glnlac-CO—CO2Me]		Ki (Hip1 [1]): 117 ± 15 pM
CC(C)C[C@H](NC(=O)[C@H](CCCCN)NC(=O)[C@H](Cc1ccccc1)NC(=O)OCc1ccccc1)C(=O)Nc1ccc([N+](=O)[O-])cc1 [Cbz-Phe-Lys-Leu-pNa] (Cbz-Phe-Lys-Leu-pNA)		Km (Hip1 [2]; three independent determinations averaged, read-out: Km (chromogenic substrate)): 0.421 µM
CC(C)C[C@H](NC(=O)CNC(=O)[C@H](CCC(N)=O)NC(=O)[C@H](CCCCN)NC(=O)[C@H](Cc1ccccc1)NC(=O)[C@H](CCC(=O)O)NC(=O)c1ccc(N=Nc2ccc(N(C)C)cc2)cc1)C(=O)N[C@@H](CCC(=O)NCCNc1cccc2c(S(=O)(=O)O)cccc12)C(=O)N[C@@H](CCCNC(=N)N)C(=O)O [UFNG2, Dabcyl-Glu-Phe-Lys-Gln-Gly-Leu-Glu-(EDANS)-Arg] (Dabcyl-EFKQGLE(EDANS)R-OH)	37.6	
CC(C)C[C@H](NC(=O)CNC(=O)[C@H](CCCNC(=N)N)NC(=O)[C@H](CCCNC(=N)N)NC(=O)[C@H](C)NC(=O)[C@H](CCC(=O)O)NC(=O)c1ccc(N=Nc2ccc(N(C)C)cc2)cc1)C(=O)N[C@@H](CCC(=O)NCCNc1cccc2c(S(=O)(=O)O)cccc12)C(=O)N[C@@H](CCCNC(=N)N)C(=O)O [UFNG1] (Dabcyl-EARRGLE(EDANS)R-OH)	17.5	
